For the series the following is noted: mouse, in vivo.

Where two headings read alike, the source gives them in different places.

This note sets out measurements from US10059760B2 (priority 2014, dated 2018).

For the compound `O=C(O)c1cn(C2CC2)c2cc(N3CCNCC3)c(F)cc2c1=O` [ciprofloxacin], for the setting “sc, 25 mg/kg”, the tolerance result is on record as “favorably tested”.
Turning to `C[C@H]1c2cccc(O)c2C(=O)C2=C(O)[C@]3(O)C(=O)C(C(N)=O)=C(O)[C@@H](N(C)C)[C@@H]3[C@@H](O)[C@@H]21` [doxycycline], the tolerance entry (50 mg/kg) is “poorly tolerated”.
